Experiments:
Test in all cases: radiometric filter-binding kinase assay
YES1 (human) = YES1 (human) (UniProt P07947); conditions: ATP 20 µM
HIPK2 (human) = HIPK2 (human) (UniProt Q9H2X6); conditions: ATP 5 µM
BTK (human) = BTK (human) (UniProt Q06187); conditions: ATP 50 µM
INSR (human) = INSR (human) (UniProt P06213); conditions: ATP 20 µM
MAPK9 (human) = MAPK9 (human) (UniProt P45984); conditions: ATP 20 µM
SRPK1 (human) = SRPK1 (human) (UniProt Q96SB4); conditions: ATP 50 µM
STK3 (human) = STK3 (human) (UniProt Q13188); conditions: ATP 20 µM
NEK2 (human) = NEK2 (human) (UniProt P51955); conditions: ATP 50 µM
GSK3B (human) = GSK3B (human) (UniProt P49841); conditions: ATP 5 µM
RPS6KB2 (human) = RPS6KB2 (human) (UniProt Q9UBS0); conditions: ATP 100 µM
SRC (human) = SRC (human) (UniProt P12931); conditions: ATP 50 µM
MAPK3 (human) = MAPK3 (human) (UniProt P27361); conditions: ATP 5 µM
CSNK2A1 (human) = CSNK2A1 (human) (UniProt P68400); conditions: ATP 5 µM
MST4 (human) = MST4 (human) (UniProt Q9P289); conditions: ATP 20 µM
LCK (mouse) = conditions: ATP 50 µM, accession and sequence are those of the human protein
CHEK2 (human) = CHEK2 (human) (UniProt O96017); conditions: ATP 20 µM
IKBKB (human) = IKBKB (human) (UniProt O14920); conditions: ATP 5 µM
MAPK8 (human) = MAPK8 (human) (UniProt P45983); conditions: ATP 20 µM
EEF2K (human) = EEF2K (human) (UniProt O00418); conditions: ATP 5 µM
PAK4 (human) = PAK4 (human) (UniProt O96013); conditions: ATP 5 µM
PHKG1 (human) = PHKG1 (human) (UniProt Q16816); conditions: ATP 50 µM
MKNK1 (human) = MKNK1 (human) (UniProt Q9BUB5); conditions: ATP 50 µM
MAP2K1 (human) = MAP2K1 (human) (UniProt Q02750); conditions: ATP 5 µM
MAPK12 (human) = MAPK12 (human) (UniProt P53778); conditions: ATP 5 µM
[1] = tested on: AKT1 (human), P31749 [S473D]; conditions: ATP 5 µM
[2] = tested on: AKT2 (human), P31751 [S474D]; conditions: ATP 50 µM
MKNK2 (human) = MKNK2 (human) (UniProt Q9HBH9); conditions: ATP 50 µM
MAPKAPK2 (human) = MAPKAPK2 (human) (UniProt P49137); conditions: ATP 20 µM
MAPK13 (human) = MAPK13 (human) (UniProt O15264); conditions: ATP 5 µM

Chain of BTK (human) (Q06187 whole entry, looked up): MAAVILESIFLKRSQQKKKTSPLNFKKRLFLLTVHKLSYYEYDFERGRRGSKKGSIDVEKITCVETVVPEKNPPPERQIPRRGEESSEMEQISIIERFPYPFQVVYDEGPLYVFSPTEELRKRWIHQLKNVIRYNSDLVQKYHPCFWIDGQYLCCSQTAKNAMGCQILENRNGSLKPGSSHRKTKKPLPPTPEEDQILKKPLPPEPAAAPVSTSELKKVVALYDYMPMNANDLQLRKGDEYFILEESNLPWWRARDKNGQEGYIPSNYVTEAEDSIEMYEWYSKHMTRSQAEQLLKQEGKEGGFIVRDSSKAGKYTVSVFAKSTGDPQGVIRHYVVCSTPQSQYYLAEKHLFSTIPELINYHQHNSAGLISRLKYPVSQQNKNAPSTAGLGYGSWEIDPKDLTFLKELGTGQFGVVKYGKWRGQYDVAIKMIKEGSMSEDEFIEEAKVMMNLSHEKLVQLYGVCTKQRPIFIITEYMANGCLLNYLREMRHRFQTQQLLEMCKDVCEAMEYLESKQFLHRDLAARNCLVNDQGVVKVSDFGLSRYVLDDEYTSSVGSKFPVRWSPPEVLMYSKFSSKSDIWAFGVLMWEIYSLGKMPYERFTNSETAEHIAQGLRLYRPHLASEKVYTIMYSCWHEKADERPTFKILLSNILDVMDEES
Chain of SRPK1 (human) (Q96SB4 whole entry, looked up): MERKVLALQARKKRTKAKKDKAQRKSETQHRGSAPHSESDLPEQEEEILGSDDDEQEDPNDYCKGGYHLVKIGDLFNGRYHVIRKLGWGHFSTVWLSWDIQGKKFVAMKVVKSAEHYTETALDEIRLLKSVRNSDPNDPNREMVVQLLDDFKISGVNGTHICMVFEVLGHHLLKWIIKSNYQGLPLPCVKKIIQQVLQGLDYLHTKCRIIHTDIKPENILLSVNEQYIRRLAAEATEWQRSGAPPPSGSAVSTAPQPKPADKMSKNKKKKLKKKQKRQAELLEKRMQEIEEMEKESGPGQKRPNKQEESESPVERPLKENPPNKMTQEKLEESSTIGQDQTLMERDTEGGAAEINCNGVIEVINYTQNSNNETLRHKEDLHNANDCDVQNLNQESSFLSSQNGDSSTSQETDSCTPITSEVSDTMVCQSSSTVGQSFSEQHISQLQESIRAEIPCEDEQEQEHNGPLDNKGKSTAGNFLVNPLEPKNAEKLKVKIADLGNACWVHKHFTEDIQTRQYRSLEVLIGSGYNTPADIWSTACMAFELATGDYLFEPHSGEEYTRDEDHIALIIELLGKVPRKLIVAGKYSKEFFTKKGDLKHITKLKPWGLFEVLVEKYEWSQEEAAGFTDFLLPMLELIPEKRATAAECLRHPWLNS
Chain of EEF2K (human) (O00418 whole entry, looked up): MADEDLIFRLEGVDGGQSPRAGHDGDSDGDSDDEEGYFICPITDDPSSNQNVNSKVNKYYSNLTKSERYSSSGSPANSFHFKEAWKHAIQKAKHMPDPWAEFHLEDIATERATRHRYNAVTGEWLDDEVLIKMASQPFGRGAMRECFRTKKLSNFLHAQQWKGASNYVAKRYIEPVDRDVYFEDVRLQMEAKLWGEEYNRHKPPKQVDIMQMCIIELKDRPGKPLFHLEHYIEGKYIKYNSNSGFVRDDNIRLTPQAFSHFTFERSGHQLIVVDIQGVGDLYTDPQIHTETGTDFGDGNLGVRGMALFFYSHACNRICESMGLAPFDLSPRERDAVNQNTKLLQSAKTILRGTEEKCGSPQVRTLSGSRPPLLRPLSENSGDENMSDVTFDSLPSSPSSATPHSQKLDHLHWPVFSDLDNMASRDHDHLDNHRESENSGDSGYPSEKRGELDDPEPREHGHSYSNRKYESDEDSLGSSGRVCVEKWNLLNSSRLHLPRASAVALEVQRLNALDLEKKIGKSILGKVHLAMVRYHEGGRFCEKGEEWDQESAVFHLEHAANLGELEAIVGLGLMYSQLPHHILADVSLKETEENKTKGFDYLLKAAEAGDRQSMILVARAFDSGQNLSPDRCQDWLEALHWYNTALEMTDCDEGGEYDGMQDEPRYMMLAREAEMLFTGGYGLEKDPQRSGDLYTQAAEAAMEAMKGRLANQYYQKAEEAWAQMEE
Chain of CHEK2 (human) (O96017 whole entry, looked up): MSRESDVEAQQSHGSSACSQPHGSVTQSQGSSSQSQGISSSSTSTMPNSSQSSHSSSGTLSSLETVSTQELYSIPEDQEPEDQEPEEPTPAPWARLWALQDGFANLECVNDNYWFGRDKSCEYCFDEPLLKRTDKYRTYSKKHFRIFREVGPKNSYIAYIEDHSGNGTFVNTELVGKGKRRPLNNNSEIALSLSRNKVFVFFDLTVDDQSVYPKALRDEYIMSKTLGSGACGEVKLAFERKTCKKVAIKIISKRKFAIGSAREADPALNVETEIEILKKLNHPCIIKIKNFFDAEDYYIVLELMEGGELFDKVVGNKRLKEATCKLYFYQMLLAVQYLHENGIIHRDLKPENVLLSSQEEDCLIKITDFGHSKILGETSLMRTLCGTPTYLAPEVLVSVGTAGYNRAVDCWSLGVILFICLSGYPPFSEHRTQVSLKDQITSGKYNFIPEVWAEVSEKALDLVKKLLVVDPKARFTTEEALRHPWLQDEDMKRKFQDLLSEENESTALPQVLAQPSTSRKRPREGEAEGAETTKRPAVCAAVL
Chain of SRC (human) (P12931 whole entry, looked up): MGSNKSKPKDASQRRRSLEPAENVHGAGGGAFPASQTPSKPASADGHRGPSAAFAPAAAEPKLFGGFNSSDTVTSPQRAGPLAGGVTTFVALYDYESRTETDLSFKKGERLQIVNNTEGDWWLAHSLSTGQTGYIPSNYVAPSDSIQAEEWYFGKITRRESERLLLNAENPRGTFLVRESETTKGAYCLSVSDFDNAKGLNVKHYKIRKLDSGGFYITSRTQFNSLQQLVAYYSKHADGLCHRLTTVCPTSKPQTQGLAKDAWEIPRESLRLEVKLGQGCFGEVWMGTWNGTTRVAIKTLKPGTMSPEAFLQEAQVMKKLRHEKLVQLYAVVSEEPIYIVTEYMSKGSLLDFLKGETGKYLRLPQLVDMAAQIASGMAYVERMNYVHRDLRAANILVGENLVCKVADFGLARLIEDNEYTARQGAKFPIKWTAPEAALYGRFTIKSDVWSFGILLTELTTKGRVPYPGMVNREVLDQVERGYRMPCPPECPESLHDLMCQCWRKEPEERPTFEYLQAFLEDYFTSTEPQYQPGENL
Chain of MKNK2 (human) (Q9HBH9 whole entry, looked up): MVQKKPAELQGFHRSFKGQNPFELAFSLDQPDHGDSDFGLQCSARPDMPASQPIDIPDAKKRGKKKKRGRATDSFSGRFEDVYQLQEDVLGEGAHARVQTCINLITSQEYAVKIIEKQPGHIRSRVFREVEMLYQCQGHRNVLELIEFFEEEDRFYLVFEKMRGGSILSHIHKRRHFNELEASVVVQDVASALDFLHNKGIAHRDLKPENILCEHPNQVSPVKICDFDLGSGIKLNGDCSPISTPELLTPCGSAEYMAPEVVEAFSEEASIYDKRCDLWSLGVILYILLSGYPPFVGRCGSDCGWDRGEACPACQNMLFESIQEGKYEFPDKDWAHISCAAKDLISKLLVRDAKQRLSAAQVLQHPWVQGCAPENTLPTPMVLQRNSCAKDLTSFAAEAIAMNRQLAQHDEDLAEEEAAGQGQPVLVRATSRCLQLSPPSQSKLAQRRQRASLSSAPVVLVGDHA
Chain of MAPK8 (human) (P45983 whole entry, looked up): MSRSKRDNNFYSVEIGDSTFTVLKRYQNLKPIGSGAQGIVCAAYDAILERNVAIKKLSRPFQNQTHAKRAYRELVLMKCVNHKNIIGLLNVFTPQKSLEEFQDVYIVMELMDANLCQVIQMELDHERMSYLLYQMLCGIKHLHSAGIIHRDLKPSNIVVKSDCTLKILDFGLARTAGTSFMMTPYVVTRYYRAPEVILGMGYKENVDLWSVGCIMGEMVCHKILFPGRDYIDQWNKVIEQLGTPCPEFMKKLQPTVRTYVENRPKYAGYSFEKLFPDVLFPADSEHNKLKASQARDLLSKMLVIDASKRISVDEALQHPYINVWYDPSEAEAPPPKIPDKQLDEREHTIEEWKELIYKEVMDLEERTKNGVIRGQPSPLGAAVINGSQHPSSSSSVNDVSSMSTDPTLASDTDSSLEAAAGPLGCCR
Chain of CSNK2A1 (human) (P68400 whole entry, looked up): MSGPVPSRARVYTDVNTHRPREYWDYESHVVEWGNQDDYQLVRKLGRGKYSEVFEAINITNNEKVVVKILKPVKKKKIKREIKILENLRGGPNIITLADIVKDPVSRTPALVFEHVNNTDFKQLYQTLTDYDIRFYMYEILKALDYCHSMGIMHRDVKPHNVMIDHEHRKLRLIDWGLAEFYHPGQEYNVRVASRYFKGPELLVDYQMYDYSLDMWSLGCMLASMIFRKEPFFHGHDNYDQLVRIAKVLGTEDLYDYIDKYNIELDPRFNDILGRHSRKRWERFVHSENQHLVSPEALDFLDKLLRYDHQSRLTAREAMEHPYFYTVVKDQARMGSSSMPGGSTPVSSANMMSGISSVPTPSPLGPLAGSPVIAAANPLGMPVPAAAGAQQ
Chain of YES1 (human) (P07947 whole entry, looked up): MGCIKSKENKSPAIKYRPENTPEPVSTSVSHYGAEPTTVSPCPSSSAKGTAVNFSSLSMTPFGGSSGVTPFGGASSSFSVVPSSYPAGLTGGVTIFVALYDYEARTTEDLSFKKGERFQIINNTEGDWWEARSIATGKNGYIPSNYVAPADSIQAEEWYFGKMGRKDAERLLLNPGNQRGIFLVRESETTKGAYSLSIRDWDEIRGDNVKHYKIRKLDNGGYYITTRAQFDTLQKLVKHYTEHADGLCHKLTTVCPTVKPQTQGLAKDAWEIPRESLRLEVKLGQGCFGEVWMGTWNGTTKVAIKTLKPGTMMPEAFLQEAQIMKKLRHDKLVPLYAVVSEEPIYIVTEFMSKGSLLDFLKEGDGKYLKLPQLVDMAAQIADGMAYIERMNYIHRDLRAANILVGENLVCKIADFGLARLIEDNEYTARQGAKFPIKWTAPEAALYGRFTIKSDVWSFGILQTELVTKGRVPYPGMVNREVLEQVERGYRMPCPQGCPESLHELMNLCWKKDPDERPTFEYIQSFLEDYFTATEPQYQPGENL

With `CCc1cncnc1N1CCN(Cc2nc3cc(C(F)(F)F)ccc3[nH]2)CC1` the residual activity (YES1 (human); compound 0.1 µM) was 98%, the residual activity (YES1 (human); compound 1.0 µM) was 84% and the residual activity (YES1 (human); compound 10.0 µM) was 76%. The residual activity (HIPK2 (human); compound 0.1 µM) was 108%, the residual activity (HIPK2 (human); compound 1.0 µM) was 86% and the residual activity (HIPK2 (human); compound 10.0 µM) was 88%. It also gave a residual activity (BTK (human); compound 0.1 µM) of 83%, a residual activity (BTK (human); compound 1.0 µM) of 87% and a residual activity (BTK (human); compound 10.0 µM) of 92%. The residual activity (INSR (human); compound 0.1 µM) was 108%, the residual activity (INSR (human); compound 1.0 µM) was 95% and the residual activity (INSR (human); compound 10.0 µM) was 96%. It also gave a residual activity (MAPK9 (human); compound 0.1 µM) of 92%, a residual activity (MAPK9 (human); compound 1.0 µM) of 93% and a residual activity (MAPK9 (human); compound 10.0 µM) of 98%. It also gave a residual activity (SRPK1 (human); compound 0.1 µM) of 108%, a residual activity (SRPK1 (human); compound 1.0 µM) of 106% and a residual activity (SRPK1 (human); compound 10.0 µM) of 101%. For the same compound, the residual activity (STK3 (human); compound 0.1 µM) was 95%, the residual activity (STK3 (human); compound 1.0 µM) was 85% and the residual activity (STK3 (human); compound 10.0 µM) was 77%. The residual activity (NEK2 (human); compound 0.1 µM) was 95%, the residual activity (NEK2 (human); compound 1.0 µM) was 94% and the residual activity (NEK2 (human); compound 10.0 µM) was 91%. The residual activity (GSK3B (human); compound 0.1 µM) was 87%, the residual activity (GSK3B (human); compound 1.0 µM) was 96% and the residual activity (GSK3B (human); compound 10.0 µM) was 92%. The IC50 (RPS6KB2 (human)) was 65 µM, the residual activity (SRC (human); compound 0.1 µM) was 103% and the residual activity (SRC (human); compound 1.0 µM) was 99%. The residual activity (SRC (human); compound 10.0 µM) was 92%, the residual activity (MAPK3 (human); compound 0.1 µM) was 93% and the residual activity (MAPK3 (human); compound 1.0 µM) was 85%. For the same compound, the residual activity (MAPK3 (human); compound 10.0 µM) was 83%, the residual activity (CSNK2A1 (human); compound 0.1 µM) was 96% and the residual activity (CSNK2A1 (human); compound 1.0 µM) was 92%. It also gave a residual activity (CSNK2A1 (human); compound 10.0 µM) of 83%, a residual activity (MST4 (human); compound 0.1 µM) of 87% and a residual activity (MST4 (human); compound 1.0 µM) of 77%. It also gave a residual activity (MST4 (human); compound 10.0 µM) of 46%, a residual activity (LCK (mouse); compound 0.1 µM) of 91% and a residual activity (LCK (mouse); compound 1.0 µM) of 92%. For the same compound, the residual activity (LCK (mouse); compound 10.0 µM) was 88%, the residual activity (CHEK2 (human); compound 0.1 µM) was 101% and the residual activity (CHEK2 (human); compound 1.0 µM) was 73%. It also gave a residual activity (CHEK2 (human); compound 10.0 µM) of 72%, a residual activity (IKBKB (human); compound 0.1 µM) of 195% and a residual activity (IKBKB (human); compound 1.0 µM) of 230%. The residual activity (IKBKB (human); compound 10.0 µM) was 192%, the residual activity (MAPK8 (human); compound 0.1 µM) was 111% and the residual activity (MAPK8 (human); compound 1.0 µM) was 107%. For the same compound, the residual activity (MAPK8 (human); compound 10.0 µM) was 95%, the residual activity (EEF2K (human); compound 0.1 µM) was 90% and the residual activity (EEF2K (human); compound 1.0 µM) was 73%. It also gave a residual activity (EEF2K (human); compound 10.0 µM) of 78%, a residual activity (PAK4 (human); compound 0.1 µM) of 93% and a residual activity (PAK4 (human); compound 1.0 µM) of 88%. The residual activity (PAK4 (human); compound 10.0 µM) was 88%, the residual activity (PHKG1 (human); compound 0.1 µM) was 100% and the residual activity (PHKG1 (human); compound 1.0 µM) was 96%. It also gave a residual activity (PHKG1 (human); compound 10.0 µM) of 104%, a residual activity (MKNK1 (human); compound 0.1 µM) of 101% and a residual activity (MKNK1 (human); compound 1.0 µM) of 91%. It also gave a residual activity (MKNK1 (human); compound 10.0 µM) of 79%, a residual activity (MAP2K1 (human); compound 0.1 µM) of 117% and a residual activity (MAP2K1 (human); compound 1.0 µM) of 104%. The residual activity (MAP2K1 (human); compound 10.0 µM) was 96%, the residual activity (MAPK12 (human); compound 0.1 µM) was 107% and the residual activity (MAPK12 (human); compound 1.0 µM) was 102%. The residual activity (MAPK12 (human); compound 10.0 µM) was 103%, the residual activity ([1]; compound 0.1 µM) was 87% and the residual activity ([1]; compound 1.0 µM) was 69%. It also gave a residual activity ([1]; compound 10.0 µM) of 52%, a residual activity ([2]; compound 0.1 µM) of 74% and a residual activity ([2]; compound 1.0 µM) of 73%. For the same compound, the residual activity ([2]; compound 10.0 µM) was 60%, the residual activity (MKNK2 (human); compound 0.1 µM) was 92% and the residual activity (MKNK2 (human); compound 1.0 µM) was 93%. It also gave a residual activity (MKNK2 (human); compound 10.0 µM) of 79%, a residual activity (MAPKAPK2 (human); compound 0.1 µM) of 88% and a residual activity (MAPKAPK2 (human); compound 1.0 µM) of 105%. It also gave a residual activity (MAPKAPK2 (human); compound 10.0 µM) of 78%, a residual activity (MAPK13 (human); compound 0.1 µM) of 89% and a residual activity (MAPK13 (human); compound 1.0 µM) of 82%. It also gave a residual activity (MAPK13 (human); compound 10.0 µM) of 91%.

Source: the kinase profiling compilation of Christmann-Franck et al. (2016)
